Results on one compound are retold here after patent US20130131069A1, “METHOD FOR TREATMENT OF SOLID MALIGNANCIES INCLUDING ADVANCED OR METASTATIC SOLID MALIGNANCIES” (Boehringer Ingelheim International GmbH, priority 2011, published 2013).

Data set [1] relates to advanced or metastatic solid malignancies. Description: Clinical trial: toxicity guided dose escalation study, 2-hr infusion on days 1 and 8 every 3 weeks. Type of data set: in vivo. On the procedure:
(§1) Sequential cohorts of 3-6 patients with advanced or metastatic solid malignancies received a 2-hr infusion of volasertib on days 1 and 8 every 3 weeks in a toxicity guided dose escalation study. There were 4 prespecified doses (50-200 mg).
(§2) 27 Asian patients with advanced solid malignancies were treated. […] MTD was 150 mg for above described schedule. The median number of initiated courses was 3 over all dose groups (range 1-21). […] Two patients with bladder cancer and melanoma, respectively had partial responses.

Data set [2] is described as follows: Clinical trial: pharmacokinetics in patients. Conditions: 2-hr i.v. infusion days 1 and 8 every 3 weeks. Type of data set: in vivo, human. How it is done: as §1, §2
The mark [3] stands for this setting: administered at two days during a 21 day treatment cycle.

What is called clearance is the rate of elimination divided by the concentration. High values mean a high capacity for elimination, low ones a low capacity for elimination. For orientation: half-life means the time in which the quantity being followed falls by half. In data set [1] (2-hr infusion on days 1 and 8 of 21 day cycle), `CC[C@@H]1C(=O)N(C)c2cnc(Nc3ccc(C(=O)N[C@H]4CC[C@H](N5CCN(CC6CC6)CC5)CC4)cc3OC)nc2N1C(C)C` [Volasertib, N-[trans-4-[4-(cyclopropylmethyl)-1-piperazinyl]cyclohexyl]-4-[[(7R)-7-ethyl-5,6,7,8-tetrahydro-5-methyl-8-(1-methylethyl)-6-oxo-2-pteridinyl]amino]-3-methoxy-benzamide] yielded an MTD of 150 mg. The “patients with partial responses (bladder cancer and melanoma, respectively)” value in data set [1] (27 patients treated, days 1 and 8 every 3 weeks) is on record as “Two”. For the same compound, in data set [1] (setting [3]), the “patients achieved partial response (preliminary anti-tumor activity)” value was 1 patient and the “patients achieved stable disease” value is 10 patients. Further, in data set [1] (human, in vivo), the “dose limiting toxicities (DLTs)” value is “reversible thrombocytopenia, neutropenia and febrile neutropenia”. Further, the PK behavior result in data set [2] was “multi-compartmental”. Also, the clearance in data set [2] (human, in vivo, iv) worked out at 807 mL/min. Also, the half-life in data set [2] (human, in vivo, iv, read-out: mean terminal elimination half-life (converted)) was 107 h. Further, the Vd in data set [2] (human, in vivo, iv, read-out: volume of distribution) was found to be 4500 L.
